Tested on: Eleusine indica
Assay: Further glasshouse test versus other ACCase-inhibiting herbicides, Table B2-2
Format: in vivo
Conditions: 21 days after application
Excerpt: Further tests were employed to test the efficacy of a compound of Formula I versus other ACCase-inhibiting herbicides. The five main targets were Lolium multiflorum, Eleusine indica, Digitaria insularis, Sorghum halepense and Echinochloa crus-galli. Collectively, the populations contained all the major target-site resistance mutations affecting ACCase herbicides. Two L. multiflorum (LM-NTSR-1 and LM-NTSR-2) and one E. crus-galli (ECG-NTSR-1) populations were characterised exclusively by non-target-site resistance (“NTSR”). The target-site resistant L. multiflorum and E. indication populations were 100% homozygous for different ACCase mutations whilst the D. insularis, S. halepense and E. crus-galli samples contained a mixture of homozygous wild and mutant individuals at different genotypic frequencies. Additional underlying NTSR cannot be ruled out in the populations characterised by target-site resistance.
Around 50 seeds of each of the 24 weed populations were sown in 12-cm pots containing a mixture of peat and compost in a 1:1 ratio. The pots were watered, fertilised and kept in controlled glasshouse conditions set at 24° C./16 hr day, 18° C. night, 65% relative humidity, and a photon flux density of approximately 250 μmol quanta m^−2 s^−1 for Lolium multiflorum. The E. indica, D. insularis, S. halepense and E. crus-galli plants were kept in a separate glasshouse bay characterised by a 17 H photoperiod of 180 μmol m^−2 s^−1 with temperatures of 25° C. day and 19° C. night and 65% relative humidity. When the plants were at the two to four-leaf stage, they were treated with the various ACCase-inhibiting herbicides at 0, 15, 30, 60, 120 and 240 g ai ha^−1 in a spray cabinet mounted with a single mobile Teejet flat fan nozzle (11002VS) calibrated to deliver 200 L ha^−1 at 200 kPa. The L. multiflorum populations were treated by a compound of Formula Ic, clodinafop-propargyl, pinoxaden, cycloxydim and clethodim and the warm season grass weeds E. indica, D. insularis, S. halepense and E. crus-galli were sprayed with a Compound Ic and the commonly employed haloxyfop-methyl and clethodim. Three replicate pots were used per population. Plants were assessed for visual damage compared to the untreated control 21 days after application (0=0% damage; 100=100% damage).

Compound | visual damage (biotype D2078G, 15 g/ha) | visual damage (biotype D2078G, 30 g/ha) | visual damage (biotype D2078G, 60 g/ha) | visual damage (biotype D2078G, 120 g/ha) | visual damage (biotype D2078G, 240 g/ha) | visual damage (biotype G2096A, 15 g/ha) | visual damage (biotype G2096A, 30 g/ha) | visual damage (biotype G2096A, 60 g/ha) | visual damage (biotype G2096A, 120 g/ha) | visual damage (biotype G2096A, 240 g/ha) | visual damage (biotype I2041N, 15 g/ha) | visual damage (biotype I2041N, 30 g/ha) | visual damage (biotype I2041N, 60 g/ha) | visual damage (biotype I2041N, 120 g/ha) | visual damage (biotype I2041N, 240 g/ha) | visual damage (biotype Sensitive, 15 g/ha) | visual damage (biotype Sensitive, 30 g/ha) | visual damage (biotype Sensitive, 60 g/ha) | visual damage (biotype Sensitive, 120 g/ha) | visual damage (biotype Sensitive, 240 g/ha) | also measured
CCSC(C)CC1CC(=O)C(/C(CC)=N/OC/C=C/Cl)=C(O)C1 (centres unmarked) [Clethodim, clethodim] | 10% | 27% | 53% | 100% | 100% | 7% | 30% | 78% | 100% | 100% | 60% | 27% | 53% | 100% | 100% | 92% | 100% | 100% | 100% | 100% | visual damage (biotype W2027C, 15 g/ha): 93%; visual damage (biotype W2027C, 30 g/ha): 100%; visual damage (biotype W2027C, 60 g/ha): 100%; visual damage (biotype W2027C, 120 g/ha): 100%; visual damage (biotype W2027C, 240 g/ha): 100%
CC#Cc1ccc(C2=C(OC(=O)OC)C3CCC(C3)C2=O)c(OC)c1 (centres unmarked) [Compound Ic] | 88% | 100% | 100% | 100% | 100% | 93% | 98% | 100% | 100% | 100% | 50% | 98% | 100% | 100% | 100% | 100% | 100% | 100% | 100% | 100% | visual damage (biotype W2027C, 15 g/ha): 100%; visual damage (biotype W2027C, 30 g/ha): 100%; visual damage (biotype W2027C, 60 g/ha): 100%; visual damage (biotype W2027C, 120 g/ha): 100%; visual damage (biotype W2027C, 240 g/ha): 100%

Reference: patent publication US20260215428A1, “WEED CONTROL METHOD” (SYNGENTA CROP PROTECTION AG, priority 2023, published 2026)
